Assay results: US10246453B2, “Benzenesulfonamide compounds and their use as therapeutic agents” (Xenon Pharmaceuticals Inc., priority 2016, dated 2019)
Where a name gives a salt, the structure may show the parent alone.

Key:
[1] = target: NaV1.5 (Homo sapiens (Human), UniProt Q14524); assay: Sodium Influx Assay (Flux), NaV1.5; conditions: read-out: Flux NaV1.5 IC50; Trex HEK293 cells, ANG2 dye; arithmetic mean
[2] = target: NaV1.6 (Homo sapiens (Human), UniProt Q9UQD0); assay: Sodium Influx Assay (Flux), NaV1.6; conditions: read-out: Flux NaV1.6 IC50; Trex HEK293 cells, ANG2 dye; arithmetic mean
[3] = target: NaV1.1 (Homo sapiens (Human), UniProt P35498); assay: Sodium Influx Assay (Flux), NaV1.1; type: cell-based; conditions: Trex HEK293 cells, ANG2 dye; arithmetic mean

Chain of NaV1.5 (Q14524 other isoform, or with tags, fused parts or gaps): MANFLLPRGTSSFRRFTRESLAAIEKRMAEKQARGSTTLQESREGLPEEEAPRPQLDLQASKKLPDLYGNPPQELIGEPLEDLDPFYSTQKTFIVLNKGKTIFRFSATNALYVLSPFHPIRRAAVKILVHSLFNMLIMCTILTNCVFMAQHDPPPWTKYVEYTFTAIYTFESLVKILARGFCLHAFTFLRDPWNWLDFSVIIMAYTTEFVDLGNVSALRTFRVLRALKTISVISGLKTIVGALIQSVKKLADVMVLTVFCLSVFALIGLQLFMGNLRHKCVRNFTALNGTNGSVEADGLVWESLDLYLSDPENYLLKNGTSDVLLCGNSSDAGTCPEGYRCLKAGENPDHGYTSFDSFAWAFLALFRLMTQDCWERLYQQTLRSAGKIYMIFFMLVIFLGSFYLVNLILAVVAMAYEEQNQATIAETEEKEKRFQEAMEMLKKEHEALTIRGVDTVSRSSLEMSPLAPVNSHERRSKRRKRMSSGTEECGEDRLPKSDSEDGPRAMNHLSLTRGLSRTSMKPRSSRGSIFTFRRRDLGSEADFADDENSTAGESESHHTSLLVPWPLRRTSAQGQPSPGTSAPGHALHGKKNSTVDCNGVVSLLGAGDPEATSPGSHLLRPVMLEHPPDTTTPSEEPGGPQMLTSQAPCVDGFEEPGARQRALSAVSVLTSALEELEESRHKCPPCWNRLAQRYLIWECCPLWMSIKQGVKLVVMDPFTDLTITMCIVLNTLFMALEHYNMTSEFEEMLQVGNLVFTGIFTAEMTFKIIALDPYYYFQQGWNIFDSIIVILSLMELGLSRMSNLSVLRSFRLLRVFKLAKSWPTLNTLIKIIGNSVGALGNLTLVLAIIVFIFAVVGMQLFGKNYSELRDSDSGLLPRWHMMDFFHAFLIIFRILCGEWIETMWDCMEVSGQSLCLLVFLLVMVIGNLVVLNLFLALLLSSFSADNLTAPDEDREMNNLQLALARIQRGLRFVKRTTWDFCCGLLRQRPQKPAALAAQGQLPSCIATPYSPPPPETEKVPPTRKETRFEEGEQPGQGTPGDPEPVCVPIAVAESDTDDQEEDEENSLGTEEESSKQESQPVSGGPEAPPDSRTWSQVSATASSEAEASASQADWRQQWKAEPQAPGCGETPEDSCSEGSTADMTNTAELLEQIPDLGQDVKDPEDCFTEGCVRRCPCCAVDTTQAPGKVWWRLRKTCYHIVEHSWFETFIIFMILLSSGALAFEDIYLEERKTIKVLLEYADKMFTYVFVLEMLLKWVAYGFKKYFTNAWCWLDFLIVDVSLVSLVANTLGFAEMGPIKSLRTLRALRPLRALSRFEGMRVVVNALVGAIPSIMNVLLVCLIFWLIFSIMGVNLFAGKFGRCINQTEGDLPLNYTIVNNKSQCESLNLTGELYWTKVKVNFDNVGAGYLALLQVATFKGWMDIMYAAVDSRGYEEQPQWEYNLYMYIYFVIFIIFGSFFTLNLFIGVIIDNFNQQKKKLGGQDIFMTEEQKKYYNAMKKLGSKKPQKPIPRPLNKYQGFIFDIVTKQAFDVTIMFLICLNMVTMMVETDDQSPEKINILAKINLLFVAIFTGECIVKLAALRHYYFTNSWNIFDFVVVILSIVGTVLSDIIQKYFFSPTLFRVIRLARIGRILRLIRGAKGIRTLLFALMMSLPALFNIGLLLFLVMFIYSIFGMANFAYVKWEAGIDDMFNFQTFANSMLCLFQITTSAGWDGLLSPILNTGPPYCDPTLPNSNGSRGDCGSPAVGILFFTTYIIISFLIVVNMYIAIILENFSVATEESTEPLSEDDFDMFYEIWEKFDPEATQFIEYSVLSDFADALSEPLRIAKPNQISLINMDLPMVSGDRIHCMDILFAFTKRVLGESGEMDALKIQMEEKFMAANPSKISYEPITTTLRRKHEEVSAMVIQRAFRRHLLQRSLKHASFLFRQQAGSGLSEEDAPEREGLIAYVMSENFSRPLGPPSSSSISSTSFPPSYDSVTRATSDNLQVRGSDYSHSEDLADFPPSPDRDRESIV

Compound | IC50 [1] | IC50 [2] | IC50 [3]
CN(c1cc(F)c(S(=O)(=O)Nc2cscn2)cc1Cl)[C@H]1CCN(CCCc2ccccc2)C1 [Example 196, (S)-5-chloro-2-fluoro-4-(methyl(1-(3-phenylpropyl)pyrrolidin-3-yl)amino)-N-(thiazol-4-yl)benzenesulfonamide] | 8.2 µM | 1260 nM | 1.87 µM
CN(c1cc(F)c(S(=O)(=O)Nc2cscn2)cc1Cl)[C@H]1CCN(Cc2cc(Cl)ccc2Cl)C1 [Example 197, (S)-5-chloro-4-((1-(2,5-dichlorobenzyl)pyrrolidin-3-yl)(methyl)amino)-2-fluoro-N-(thiazol-4-yl)benzenesulfonamide] | 3.17 µM | 3330 nM | 5.2 µM
CN(c1cc(F)c(S(=O)(=O)Nc2cscn2)cc1Cl)[C@H]1CCN(Cc2ccccc2Cl)C1 [Example 198, (S)-5-chloro-4-((1-(2-chlorobenzyl)pyrrolidin-3-yl)(methyl)amino)-2-fluoro-N-(thiazol-4-yl)benzenesulfonamide] | 4.7 µM | 1460 nM | 5.36 µM
CN(C)c1ccc(CN2CC[C@H](N(C)c3cc(F)c(S(=O)(=O)Nc4cscn4)cc3Cl)C2)cc1 [Example 199, (S)-5-chloro-4-((1-(4-(dimethylamino)benzyl)pyrrolidin-3-yl)(methyl)amino)-2-fluoro-N-(thiazol-4-yl)benzenesulfonamide] | > 30 µM | 8420 nM | 7.88 µM
CN(c1cc(F)c(S(=O)(=O)Nc2cscn2)cc1Cl)[C@H]1CCN(CCOCc2ccccc2)C1 [Example 200, (S)-4-((1-(2-(benzyloxy)ethyl)pyrrolidin-3-yl)(methyl)amino)-5-chloro-2-fluoro-N-(thiazol-4-yl)benzenesulfonamide] | 7.21 µM | 4620 nM | 4.97 µM
Cc1ccc(CN2CC[C@H](N(C)c3cc(F)c(S(=O)(=O)Nc4cscn4)cc3Cl)C2)cc1 [Example 201, (S)-5-chloro-2-fluoro-4-(methyl(1-(4-methylbenzyl)pyrrolidin-3-yl)amino)-N-(thiazol-4-yl)benzenesulfonamide] | 15 µM | 3320 nM | 5.74 µM
CN(c1cc(F)c(S(=O)(=O)Nc2cscn2)cc1Cl)[C@H]1CCN(Cc2ccc[nH]2)C1 [Example 202, (S)-4-((1-((1H-pyrrol-2-yl)methyl)pyrrolidin-3-yl)(methyl)amino)-5-chloro-2-fluoro-N-(thiazol-4-yl)benzenesulfonamide] | > 30 µM | 4320 nM | 25.1 µM
Cc1cccc(C)c1CN1CC[C@H](N(C)c2cc(F)c(S(=O)(=O)Nc3cscn3)cc2Cl)C1 [Example 203, (S)-5-chloro-4-((1-(2,6-dimethylbenzyl)pyrrolidin-3-yl)(methyl)amino)-2-fluoro-N-(thiazol-4-yl)benzenesulfonamide] | 6.7 µM | 4150 nM | 5.74 µM
Cc1ccc(CN2CC[C@H](N(C)c3cc(F)c(S(=O)(=O)Nc4cscn4)cc3Cl)C2)o1 [Example 204, (S)-5-chloro-2-fluoro-4-(methyl(1-((5-methylfuran-2-yl)methyl)pyrrolidin-3-yl)amino)-N-(thiazol-4-yl)benzenesulfonamide] | > 30 µM | 1780 nM | > 30 µM
CN(c1cc(F)c(S(=O)(=O)Nc2cscn2)cc1Cl)[C@H]1CCN(Cc2cccc(Cl)c2F)C1 [Example 205, (S)-5-chloro-4-((1-(3-chloro-2-fluorobenzyl)pyrrolidin-3-yl)(methyl)amino)-2-fluoro-N-(thiazol-4-yl)benzenesulfonamide] | 8 µM | 1160 nM | 10.3 µM
CN(c1cc(F)c(S(=O)(=O)Nc2cscn2)cc1Cl)[C@H]1CCN(Cc2cc(F)ccc2F)C1 [Example 207, (S)-5-chloro-4-((1-(2,5-difluorobenzyl)pyrrolidin-3-yl)(methyl)amino)-2-fluoro-N-(thiazol-4-yl)benzenesulfonamide] | 7.48 µM | 1380 nM | 7.31 µM
CN(c1cc(F)c(S(=O)(=O)Nc2cscn2)cc1Cl)[C@H]1CCN(Cc2cccc(Cl)c2)C1 [Example 208, (S)-5-chloro-4-((1-(3-chlorobenzyl)pyrrolidin-3-yl)(methyl)amino)-2-fluoro-N-(thiazol-4-yl)benzenesulfonamide] | 5.69 µM | 1090 nM | 4.41 µM
CN(c1cc(F)c(S(=O)(=O)Nc2cscn2)cc1Cl)[C@H]1CCN(Cc2ccccc2O)C1 [Example 209, (S)-5-chloro-2-fluoro-4-((1-(2-hydroxybenzyl)pyrrolidin-3-yl)(methyl)amino)-N-(thiazol-4-yl)benzenesulfonamide] | 20.2 µM | 2150 nM | 20 µM
CN(c1cc(F)c(S(=O)(=O)Nc2cscn2)cc1Cl)[C@H]1CCN(Cc2ccccc2OC(F)F)C1 [Example 210, (S)-5-chloro-4-((1-(2-(difluoromethoxy)benzyl)pyrrolidin-3-yl)(methyl)amino)-2-fluoro-N-(thiazol-4-yl)benzenesulfonamide] | 8.36 µM | 1270 nM | 7.13 µM
Cc1cc(CN2CC[C@H](N(C)c3cc(F)c(S(=O)(=O)Nc4cscn4)cc3Cl)C2)ccc1F [Example 211, (S)-5-chloro-2-fluoro-4-((1-(4-fluoro-3-methylbenzyl)pyrrolidin-3-yl)(methyl)amino)-N-(thiazol-4-yl)benzenesulfonamide] | 7.85 µM | 2920 nM | 4.98 µM
CN(c1cc(F)c(S(=O)(=O)Nc2cscn2)cc1Cl)[C@H]1CCN(Cc2cccc(F)c2)C1 [Example 212, (S)-5-chloro-2-fluoro-4-((1-(3-fluorobenzyl)pyrrolidin-3-yl)(methyl)amino)-N-(thiazol-4-yl)benzenesulfonamide] | 18.9 µM | 2140 nM | 10.5 µM
CN(c1cc(F)c(S(=O)(=O)Nc2cscn2)cc1Cl)[C@H]1CCN(Cc2cccc(F)c2F)C1 [Example 213, (S)-5-chloro-4-((1-(2,3-difluorobenzyl)pyrrolidin-3-yl)(methyl)amino)-2-fluoro-N-(thiazol-4-yl)benzenesulfonamide] | 12.8 µM | 3460 nM | 16.1 µM
CN(c1cc(F)c(S(=O)(=O)Nc2cscn2)cc1Cl)[C@H]1CCN(Cc2cccc(C(F)(F)F)c2)C1 [Example 214, (S)-5-chloro-2-fluoro-4-(methyl(1-(3-(trifluoromethyl)benzyl)pyrrolidin-3-yl)amino)-N-(thiazol-4-yl)benzenesulfonamide] | 5.54 µM | 1790 nM | 2.94 µM
CN(c1cc(F)c(S(=O)(=O)Nc2cscn2)cc1Cl)[C@H]1CCN(Cc2cccs2)C1 [Example 215, (S)-5-chloro-2-fluoro-4-(methyl(1-(thiophen-2-ylmethyl)pyrrolidin-3-yl)amino)-N-(thiazol-4-yl)benzenesulfonamide] | > 30 µM | 5200 nM | 27.5 µM
Cc1ccnc(CN2CC[C@H](N(C)c3cc(F)c(S(=O)(=O)Nc4cscn4)cc3Cl)C2)c1 [Example 216, (S)-5-chloro-2-fluoro-4-(methyl(1-((4-methylpyridin-2-yl)methyl)pyrrolidin-3-yl)amino)-N-(thiazol-4-yl)benzenesulfonamide] | > 30 µM | 3710 nM | > 30 µM
CN(c1cc(F)c(S(=O)(=O)Nc2cscn2)cc1Cl)[C@H]1CCN(Cc2ccc(Br)cc2)C1 [Example 217, (S)-4-((1-(4-bromobenzyl)pyrrolidin-3-yl)(methyl)amino)-5-chloro-2-fluoro-N-(thiazol-4-yl)benzenesulfonamide] | 6.7 µM | 5640 nM | 4.57 µM
CN(c1cc(F)c(S(=O)(=O)Nc2cscn2)cc1Cl)[C@H]1CCN(Cc2ccccc2F)C1 [Example 218, (S)-5-chloro-2-fluoro-4-((1-(2-fluorobenzyl)pyrrolidin-3-yl)(methyl)amino)-N-(thiazol-4-yl)benzenesulfonamide] | 14.2 µM | 2000 nM | 13.7 µM
Cc1c(F)cccc1CN1CC[C@H](N(C)c2cc(F)c(S(=O)(=O)Nc3cscn3)cc2Cl)C1 [Example 220, (S)-5-chloro-2-fluoro-4-((1-(3-fluoro-2-methylbenzyl)pyrrolidin-3-yl)(methyl)amino)-N-(thiazol-4-yl)benzenesulfonamide] | 8.19 µM | 3690 nM | 5.84 µM
Cc1c(OC2CCN(Cc3ccccc3)CC2)cc(F)c(S(=O)(=O)Nc2nccs2)c1F [Example 223, 4-((1-benzylpiperidin-4-yl)oxy)-2,6-difluoro-3-methyl-N-(thiazol-2-yl)benzenesulfonamide 2,2,2-trifluoroacetate] | 23.2 µM | 9 nM | 2.58 µM
Cc1c(N(C)[C@H]2CCN(Cc3cccc(C(F)(F)F)n3)C2)cc(F)c(S(=O)(=O)Nc2cscn2)c1F [Example 224, (S)-2,6-difluoro-3-methyl-4-(methyl(1-((6-(trifluoromethyl)pyridin-2-yl)methyl)pyrrolidin-3-yl)amino)-N-(thiazol-4-yl)benzenesulfonamide 2,2,2-trifluoroacetate] | > 30 µM | 24 nM | 8.89 µM
C[C@H](c1ccccc1)N1CCC(Oc2ccc(S(=O)(=O)Nc3cscn3)c(F)c2Cl)CC1 [Example 227, (R)-3-chloro-2-fluoro-4-((1-(1-phenylethyl)piperidin-4-yl)oxy)-N-(thiazol-4-yl)benzenesulfonamide formate] | > 30 µM | 855 nM | > 30 µM
Cc1cc(S(=O)(=O)Nc2ccon2)c(F)cc1N(C)[C@H]1CCN(Cc2ccccc2)C1 [Example 229, (S)-4-((1-benzylpyrrolidin-3-yl)(methyl)amino)-2-fluoro-N-(isoxazol-3-yl)-5-methylbenzenesulfonamide 2,2,2-trifluoroacetate] | > 30 µM | 1560 nM | > 30 µM
